Article PMC10791743, “Selective CK1α degraders exert antiproliferative activity against a broad range of human cancer cell lines” (Nature Communications, 2024)
Where “and” joins values, the source holds several entries; their conditions need not be identical. Equal values may be shown once.

Experiments:
[1] = tested on: UCSD-AML1 cells; assay: CTG viability, UCSD-AML1; type: cell-based, human; conditions: for IC50: UCSD-AML cells, replicate values
Description: After establishing the potency and selectivity of our lead CK1α degraders, we investigated their effect on a panel of AML and ALL cell lines (Fig. 3a).
The primary screen was performed in 384-well format using the CellTiter Glo (CTG) luminescent cell viability assay (Promega) as previously described. 3630 compounds from the St. Jude proprietary molecular glue library were screened against 9 human cancer cell lines (HD-MB03, MB004, MB002, MHH-CALL4, MOLM-13, TF-1, HEL, OCI-AML3, AML193). Each cell line was cultured in the complete medium recommended by the vendor and seeded in Corning 8804 BC white 384-well assay plates at densities of 1000, 1000, 1500, 7500, 1250, 156, 625, 1250, 1250 cells per well for HD-MB03, MB004, MB002, MHH-CALL4, MOLM-13, TF-1, HEL, OCI-AML, AML193, respectively. After overnight incubation at 37 °C in a humidified 5% CO2 incubator, cells were treated with compounds in dose–response format using a Pintool on a Biomek FX^P Laboratory Automation Workstation (Beckman Coulter). After 72 h of incubation, cell proliferation was assessed using a CellTiter-Glo (CTG) luminescent cell viability assay (Promega) according to the manufacturer’s instructions. Luminescence signal was measured using an EnVision plate reader (PerkinElmer).
HD-MB03 cell line was obtained from Drs. Milde, Witt and Deubzer[52]. HD-MB03 and MB004 cells were grown in a neurobasal medium supplemented with glutamine, streptomycin, penicillin, B27, EGF, bFGF, and heparin as previously described. MB002 and MB004 cells were obtained from Dr Yoon-Jae Cho[54]. MB002 cells were cultured in 80% neurobasal medium supplemented with glutamine, streptomycin, penicillin, B27, and 20% conditioned media from previous passages; EGF, bFGF, and heparin were also added to the medium. MHH-CALL4, NALM-16, MHH-CALL-2 cells were obtained from the German Collection of Microorganisms and Cell Cultures GmbH (DSMZ, Germany). PER-117 cells were obtained from Telethon Kids Institute (Perth, Australia). The cells were cultured in RPMI1640 medium supplemented with 10% FBS (Hyclone), Penicillin/Streptomycin (100 units/mL), and Glutamine (100 µM) except for MHH-CALL-2 cells where 20% FBS were used. MOLM-13 cells were obtained from DSMZ (ACC 554) and cultured in RPMI-1640 media (Gibco) supplemented with 20% FBS (R&D Systems) and 100 U/ml penicillin-streptomycin (Gibco). HNT-34 cells were purchased from DSMZ (ACC 600) and cultured in RPMI-1640 media supplemented with 20% FBS and 100 U/ml penicillin-streptomycin. Kasumi-3 cells were purchased from ATCC (CRL-2725) and cultured in RPMI-1640 media supplemented with 20% FBS and 100 U/ml penicillin-streptomycin. […]

[2] = Plasma protein binding assay (RED), human; type: in vitro ADME
Description: page 33: the need for further incubation. Following quenching, all plates were thoroughly mixed at 600 rpm for 10 minutes and centrifuged at 4000 rpm for 20 minutes. Supernatants were transferred to […] MS/MS analysis. Plasma stability was evaluated by determining the half-life through a least-squares fit of multiple time points based on first-order kinetics. Plasma protein binding assay: Test compound stock solutions were prepared at a concentration of 10 mM in DMSO. A Single-Use RED (Rapid Equilibrium Dialysis) device was acquired from Thermo Scientific (Cat. No: 99006, Rockford, IL). The sample preparation for plasma protein binding followed a modified version of Waters' method6. After thawing, plasma was centrifuged at 1000 rpm for 10 minutes to eliminate any particulates. Each compound was then prepared at a concentration of 10 µM in either human or mouse plasma. In the plasma protein binding assessment, 300 µL of spiked plasma solutions were introduced into the sample chamber (indicated by the red ring), while 550 µL of DPBS was added to the adjacent chamber. The plate was sealed and incubated at 37°C on an orbital shaker (100 rpm) for 4 hours. Post -incubation, 50 µL aliquots were withdrawn from each side of the insert and dispensed into a 96 -well storage plate. To create analytically identical sample matrices (matrix matching), an equivalent volume of blank plasma or DPBS was added to the necessary wells, followed by quenching w ith 3-fold (v:v) cold acetonitrile containing warfarin as the internal standard. Subsequently, the sealed plates were well -mixed at 600 rpm for 10 minutes and then centrifuged at 4000 rpm for 20 minutes. Supernatants were transferred to analytical […] Test compound concentrations were quantified in both the buffer and plasma chambers by determining peak areas relative to the internal standard. The percentage of the test compound bound to plasma was calculated using the following equation (4): %Free = (Concentration buffer chamber / concentration plasma chamber) x 100% and equation (5) %Bound = 100% - %Free.

[3] = human plasma, single replicates

Cc1cccc(C(=O)Nc2ccc3c(c2)CN(C2CCC(=O)NC2=O)C3=O)c1 (centres unmarked) [SJ0040]
IC50 ([1]; Homo sapiens): 3 nM
IC50 [1]: 2.1 nM

O=C1CCC(N2Cc3cc(Nc4noc5ccccc45)ccc3C2=O)C(=O)N1 (centres unmarked) [SJ3149]
Activity against UCSD-AML1 cells ([1]; CTG): sub-nanomolar activity
IC50 [1]: 1 nM and 0.4 nM and 1.1 nM
fraction unbound at 4 h, 10 µM ([2]; human, plasma): 0.023

O=C1CCC(N2Cc3cc(Nc4noc5ccccc45)ccc3C2=O)C(=O)N1 (centres unmarked) [SJ001043149-1]
AVG %Bound ([2]; human plasma, average of 3 replicates): 97.7%
%Bound [2, 3]: 97.5829% and 97.7158% and 97.77%
%Free [2, 3]: 2.417% and 2.284% and 2.23%
